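Briefly, cells in 96-well plates were exposed to five compound concentrations for 48 h, and endpoints were estimated by linear interpolation. GI50 is the concentration that inhibits growth by half. TGI denotes the concentration required for complete inhibition of growth.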
Legend:
Experiment in all cases: NCI-60 cell line screen, 48 h
CCRF-CEM leukemia = system: CCRF-CEM leukemia
EKVX NSCLC = system: EKVX NSCLC
M14 melanoma = system: M14 melanoma
MALME-3M melanoma = system: MALME-3M melanoma
NCI-H226 lung = system: NCI-H226 lung
NCI-H460 lung = system: NCI-H460 lung
SK-MEL-28 melanoma = system: SK-MEL-28 melanoma
SNB-75 CNS = system: SNB-75 CNS
TK-10 renal = system: TK-10 renal
U251 CNS = system: U251 CNS

c1ccc(-c2nc3ccccc3[nH]2)c(OCCCCCOc2ccccc2-c2nc3ccccc3[nH]2)c1
GI50 (CCRF-CEM leukemia): 4.14 µM
TGI (CCRF-CEM leukemia): 29.8 µM
GI50 (EKVX NSCLC): 11.8 µM
TGI (EKVX NSCLC): 32.7 µM
GI50 (M14 melanoma): 13.4 µM
TGI (M14 melanoma): 44.1 µM
GI50 (MALME-3M melanoma): 12.3 µM
TGI (MALME-3M melanoma): 44 µM
GI50 (NCI-H226 lung): 20 µM
TGI (NCI-H226 lung): 47.4 µM
GI50 (NCI-H460 lung): 3.75 µM
TGI (NCI-H460 lung): 25.6 µM
GI50 (SK-MEL-28 melanoma): 3.07 µM
TGI (SK-MEL-28 melanoma): 14 µM
GI50 (SNB-75 CNS): 8.78 µM
TGI (SNB-75 CNS): 47.4 µM
GI50 (TK-10 renal): 13 µM
TGI (TK-10 renal): 30.8 µM
GI50 (U251 CNS): 12.5 µM
TGI (U251 CNS): 25.6 µM

COc1cc(OC)c(OC)cc1/C=C\c1ccnc2ccccc12
TGI (CCRF-CEM leukemia): 67.8 µM
TGI (EKVX NSCLC): > 46.3 µM
TGI (M14 melanoma): 38.9 µM
TGI (MALME-3M melanoma): > 100 µM
TGI (NCI-H226 lung): 30.2 µM
TGI (NCI-H460 lung): 37.3 µM
TGI (SK-MEL-28 melanoma): > 100 µM
TGI (SNB-75 CNS): 2.51 µM
TGI (TK-10 renal): 31.4 µM
TGI (U251 CNS): 16.5 µM

COc1ccc(-c2nc3sccn3c2/C=C/C(=O)c2cc(OC)c(OC)c(OC)c2)cc1
GI50 (CCRF-CEM leukemia): 3.4 µM
TGI (CCRF-CEM leukemia): 53.1 µM
GI50 (EKVX NSCLC): 3.1 µM
TGI (EKVX NSCLC): > 100 µM
GI50 (M14 melanoma): 2.52 µM
TGI (M14 melanoma): > 27.6 µM
GI50 (MALME-3M melanoma): 4.39 µM
TGI (MALME-3M melanoma): > 100 µM
GI50 (NCI-H226 lung): 2.95 µM
TGI (NCI-H226 lung): > 35 µM
GI50 (NCI-H460 lung): 2.54 µM
TGI (NCI-H460 lung): 11.1 µM
GI50 (SK-MEL-28 melanoma): 4.05 µM
TGI (SK-MEL-28 melanoma): 51.8 µM
GI50 (SNB-75 CNS): 1.3 µM
TGI (SNB-75 CNS): > 20.7 µM
GI50 (TK-10 renal): 5 µM
TGI (TK-10 renal): > 100 µM
GI50 (U251 CNS): 3.04 µM
TGI (U251 CNS): > 100 µM

CC(C)(C)OC(=O)CC(S(=O)(=O)c1ccccc1)S(=O)(=O)c1ccccc1
GI50 (CCRF-CEM leukemia): 1.64 µM
TGI (CCRF-CEM leukemia): 3.83 µM
GI50 (EKVX NSCLC): 19.6 µM
TGI (EKVX NSCLC): 39.4 µM
GI50 (M14 melanoma): 10.3 µM
TGI (M14 melanoma): 22.7 µM
GI50 (MALME-3M melanoma): 2.08 µM
TGI (MALME-3M melanoma): 4.36 µM
GI50 (NCI-H226 lung): 4.84 µM
TGI (NCI-H226 lung): 22.7 µM
GI50 (NCI-H460 lung): 19.5 µM
TGI (NCI-H460 lung): 39.4 µM
GI50 (SK-MEL-28 melanoma): 12.9 µM
TGI (SK-MEL-28 melanoma): 25.6 µM
GI50 (SNB-75 CNS): 14.2 µM
TGI (SNB-75 CNS): 31.1 µM
GI50 (TK-10 renal): 1.6 µM
TGI (TK-10 renal): 3.02 µM
GI50 (U251 CNS): 17.2 µM
TGI (U251 CNS): 35.9 µM

NC(=O)C1C(=O)Oc2cccnc21 (configuration not stated)
TGI (CCRF-CEM leukemia): > 100 µM
TGI (EKVX NSCLC): > 100 µM
TGI (M14 melanoma): > 100 µM
TGI (MALME-3M melanoma): > 100 µM
TGI (NCI-H226 lung): > 100 µM
TGI (NCI-H460 lung): > 100 µM
TGI (SK-MEL-28 melanoma): > 100 µM
TGI (SNB-75 CNS): > 100 µM
TGI (TK-10 renal): > 100 µM
TGI (U251 CNS): > 100 µM

CCOC(=O)c1cnc2c(ccc3ncccc32)c1OCC
TGI (CCRF-CEM leukemia): > 100 µM
TGI (EKVX NSCLC): > 100 µM
TGI (M14 melanoma): > 100 µM
TGI (MALME-3M melanoma): > 100 µM
TGI (NCI-H226 lung): > 100 µM
TGI (NCI-H460 lung): > 100 µM
TGI (SK-MEL-28 melanoma): > 100 µM
TGI (SNB-75 CNS): > 100 µM
TGI (TK-10 renal): > 100 µM
TGI (U251 CNS): > 100 µM

C=C1CCC2C(C)(CO)C(O)CCC2(C)C1C/C=C1\C(=O)OCC1O (configuration not stated)
TGI (CCRF-CEM leukemia): > 100 µM
TGI (EKVX NSCLC): 99.7 µM
TGI (M14 melanoma): 53.7 µM
TGI (MALME-3M melanoma): 30.2 µM
TGI (NCI-H226 lung): > 100 µM
TGI (NCI-H460 lung): 59.2 µM
TGI (SK-MEL-28 melanoma): 27.3 µM
TGI (SNB-75 CNS): 30.5 µM
TGI (TK-10 renal): > 100 µM
TGI (U251 CNS): 23.1 µM

COc1cc(C(=O)/C=C/c2c(C)n([O-])c3ccc(Cl)cc3[n+]2=O)cc(OC)c1OC
GI50 (CCRF-CEM leukemia): 2.14 µM
TGI (CCRF-CEM leukemia): 18.3 µM
GI50 (EKVX NSCLC): 8.46 µM
TGI (EKVX NSCLC): > 100 µM
GI50 (M14 melanoma): 4.59 µM
TGI (M14 melanoma): > 100 µM
GI50 (MALME-3M melanoma): 36.3 µM
TGI (MALME-3M melanoma): > 100 µM
GI50 (NCI-H226 lung): 32.6 µM
TGI (NCI-H226 lung): > 100 µM
GI50 (NCI-H460 lung): 12.5 µM
TGI (NCI-H460 lung): 36.6 µM
GI50 (SK-MEL-28 melanoma): 10.8 µM
TGI (SK-MEL-28 melanoma): 52.9 µM
GI50 (SNB-75 CNS): 5.18 µM
TGI (SNB-75 CNS): > 100 µM
GI50 (TK-10 renal): 7.83 µM
TGI (TK-10 renal): > 100 µM
GI50 (U251 CNS): 4.52 µM
TGI (U251 CNS): 72.3 µM

O=C(/C=N/O)Nc1cccc(Cl)c1I
TGI (CCRF-CEM leukemia): > 100 µM
TGI (EKVX NSCLC): 79.4 µM
TGI (M14 melanoma): > 100 µM
TGI (MALME-3M melanoma): > 100 µM
TGI (NCI-H226 lung): > 100 µM
TGI (NCI-H460 lung): > 100 µM
TGI (SK-MEL-28 melanoma): > 100 µM
TGI (SNB-75 CNS): 43.4 µM
TGI (TK-10 renal): > 100 µM
TGI (U251 CNS): > 100 µM

Cc1cc(=O)[nH]c2c1C(=O)c1c(C)cc(=O)n(C)c1C2=O
TGI (CCRF-CEM leukemia): > 10 µM
TGI (EKVX NSCLC): 0.366 µM
TGI (M14 melanoma): 0.0282 µM
TGI (MALME-3M melanoma): 0.00494 µM
TGI (NCI-H226 lung): 0.0777 µM
TGI (NCI-H460 lung): 0.364 µM
TGI (SK-MEL-28 melanoma): 0.0351 µM
TGI (SNB-75 CNS): 0.0325 µM
TGI (TK-10 renal): 0.418 µM
TGI (U251 CNS): 0.242 µM

CNC(=O)N(CCCCC(NC(C)=O)C(=O)NCc1ccccc1)Cc1ccccc1 (configuration not stated)
TGI (CCRF-CEM leukemia): > 100 µM
TGI (EKVX NSCLC): > 100 µM
TGI (M14 melanoma): > 100 µM
TGI (MALME-3M melanoma): > 100 µM
TGI (NCI-H226 lung): > 100 µM
TGI (NCI-H460 lung): > 100 µM
TGI (SK-MEL-28 melanoma): > 100 µM
TGI (SNB-75 CNS): > 100 µM
TGI (TK-10 renal): > 100 µM
TGI (U251 CNS): > 100 µM

O=[N+]([O-])/C(=C/C=C/c1ccccc1)c1ccccc1
GI50 (CCRF-CEM leukemia): 0.764 µM
TGI (CCRF-CEM leukemia): 2.39 µM
GI50 (EKVX NSCLC): 6.03 µM
TGI (EKVX NSCLC): 16.3 µM
GI50 (M14 melanoma): 2.02 µM
TGI (M14 melanoma): 5.31 µM
GI50 (MALME-3M melanoma): 1.84 µM
TGI (MALME-3M melanoma): 5.4 µM
GI50 (NCI-H226 lung): 6.07 µM
TGI (NCI-H226 lung): 12.4 µM
GI50 (NCI-H460 lung): 3.3 µM
TGI (NCI-H460 lung): 11.3 µM
GI50 (SK-MEL-28 melanoma): 2.09 µM
TGI (SK-MEL-28 melanoma): 4.23 µM
GI50 (SNB-75 CNS): 2.22 µM
TGI (SNB-75 CNS): 7.27 µM
GI50 (TK-10 renal): 2.04 µM
TGI (TK-10 renal): 4.46 µM
GI50 (U251 CNS): 1.67 µM
TGI (U251 CNS): 3.17 µM

Cc1c(C(=O)/C=C/c2ccc3c(c2)OCO3)[n+](=O)c2ccccc2n1[O-]
TGI (CCRF-CEM leukemia): > 100 µM
TGI (EKVX NSCLC): 69.3 µM
TGI (M14 melanoma): > 100 µM
TGI (MALME-3M melanoma): > 100 µM
TGI (NCI-H226 lung): 60.9 µM
TGI (NCI-H460 lung): 75.6 µM
TGI (SK-MEL-28 melanoma): > 100 µM
TGI (SNB-75 CNS): 68.6 µM
TGI (TK-10 renal): 80.6 µM
TGI (U251 CNS): > 100 µM

CN(C)CC(=O)N1CCc2c([nH]c3ccccc23)C1c1cccnc1 (configuration not stated)
TGI (CCRF-CEM leukemia): > 100 µM
TGI (EKVX NSCLC): > 100 µM
TGI (M14 melanoma): > 100 µM
GI50 (MALME-3M melanoma): > 100 µM
TGI (MALME-3M melanoma): > 100 µM
GI50 (NCI-H226 lung): > 100 µM
TGI (NCI-H226 lung): > 100 µM
TGI (NCI-H460 lung): > 100 µM
TGI (SK-MEL-28 melanoma): > 100 µM
TGI (SNB-75 CNS): > 100 µM
TGI (TK-10 renal): > 100 µM
TGI (U251 CNS): > 100 µM

— PubChem BioAssay (NCI)
